# Legend:
# [1] = tested on: Drosophila model for Parkinson disease; assay: Flight assay in Drosophila model for Parkinson disease; assay type: in vivo
# Method: Flight assays were conducted using male flies in batches of 5 flies each. Flies were placed in an empty vial (5 cm×10 cm), gently tapped and scored visually for their ability to fly. […] The combination of both treatments (e.g., Vitamin K2 and light) provided more than 50% restoration of the locomotor impairment.
# Heixudian mutants = conditions: Drosophila Heixudian mutants; Vos et al., Science 2012; cited from earlier work
structure (smiles),measurement,setting,value
CC(C)=CCC/C(C)=C/CC/C(C)=C/CC/C(C)=C/CC1=C(C)C(=O)c2ccccc2C1=O [Vitamin K2],restoration of the locomotor impairment (flight capacity),"[1]; combination of Vitamin K2 and light (808 nm continuous laser diode, 100 s, 25 mW/cm2)",more than 50%
same,restored flight capability (animals able to fly),"[1]; systemic administration of Vitamin K2 alone, male flies, non-treated controls less than 15%",about 30%
same,severe mitochondria defects,Heixudian mutants,rescued

# Source: patent US20140276355A1, “Co-administration of Light and a Therapeutic Agent to Stimulate Dysfunctional Mitochondria Affected By a Neurological Disorder” (MEDOS INTERNATIONAL SARL, priority 2013, published 2014)
